Patent publication US10613104B2, “Assay to determine anticoagulants in blood or blood plasma” (ZAFENA AB, priority 2014, dated 2020)

System: prothrombin time (PT) of normal plasma NKP
Assay: Three wet-chemistry Owren PT methods (Simple Simon PT; 20, 10, 5 μL sample in 200 μL reagent) on normal plasma NKP with added anticoagulant
Format: biochemical
Procedure: Experimental work was performed with the commercially available ambient room temperature coagulation instrument, Simple Simon P T Zafena A B, Linköping, Sweden, with functions described in EP 1 636 595 B2. One instrument or reader was used for each PT-method. Alternatively, the same instrument could be used for all PT-methods.
The three instruments were used together standing next to one another on a laboratory bench in thermal equilibrium with the ambient room temperature of the laboratory.
The ambient room temperature in the laboratory where the work was done varied between 21° C. and 26° C.
The PT-reagent was the one delivered together with lot N223M of the Simple Simon PT product, a reagent of Owren-type that thus contains effective amounts of thromboplastin, fibrinogen and FV (the thromboplastin of rabbit brain origin and the fibrinogen and the FV of bovine blood plasma origin). Other Owren type reagents could also be used.
The reagent was in portions of 200 μL to which sample, citrated blood or citrated blood plasma, was added and mixed. The addition was by an end-to-end plastic capillary mounted at one end of a tubular body with a displacement mechanism in the other end, this to allow convenient mixing of sample and reagent. Such Mixxocaps with 10 μL capillaries are supplied with the Simple Simon PT product. To perform the experiments described, some Mixxocaps were fitted with 20 μL capillaries, or 5 μL capillaries instead of the 10 μL capillaries with which they were supplied by the manufacturer.
The ratios between the volume of blood or blood plasma to the volume of liquid reagent used in the experiments were 1:11, 1:21 and 1:41. Other ratios lying within the range of 1:5 and 1:100 or within the range of 1:2 and 1:200 could be used.
Anticoagulated normal plasma was the NKP product GHI-163 lot 10188, MediRox AB, Nyköping, Sweden.
It was further relevant that all three PT-methods were calibrated, according to the invention, to show INR 1.000 for unadulterated NKP, and INR 1.357 for the NKP 1:2. All primary INR values, the results that appeared on the instrument screens (one instrument or reader was used for each PT-method), were therefore transformed to the corrected/calibrated INRc by the formula A*INRexp(B) where a and b were selected to given NKP and NKP 1:2 their desired values, 1.000 and 1.357, respectively. The INR-value of the NKP 1:2 was calculated by the formula of Lindahl et al for the INR of corresponding to PT-activity of 50% (half of the 100% that equates to INR 1.000). Above the INR calibrated columns (INRc) there is an upper number and a lower number, these are the above mentioned A and B, respectively.
As deemed relevant the upper number is selected to make NKP 1:2 to show INRc 1.357.
Clinical levels of interest range from 50 to 1000 μg/L in blood plasma.
In the selected calibration INR 1.000 and INR 1.357 were assigned to NKP and NKP 1:2, respectively, which was the same relevant calibration as selected in Examples 1 and 3 above.

[1] = dabigatran 52 μg/L in NKP plasma
[2] = dabigatran 157 μg/L in NKP plasma
[3] = dabigatran 236 μg/L in NKP plasma
[4] = dabigatran 355 μg/L in NKP plasma
[5] = dabigatran 533 μg/L in NKP plasma
[6] = dabigatran 800 μg/L in NKP plasma
[7] = dabigatran 1000 μg/L in NKP plasma

Substance: dabigatran
- INR 10 μL sample [1]: 1.09
- INR 20 μL sample [1]: 1.16
- INRc 5 μL sample [1]: 1.01
- INRc 10 μL sample [1]: 1.03
- INRc 20 μL sample [1]: 1.16
- INRo [1]: 0.98
- ΔINRc 10 μL − 5 μL [1]: 0.03
- ΔINRc 20 μL − 5 μL [1]: 0.15
- INR 10 μL sample [2]: 1.19
- INR 20 μL sample [2]: 1.31
- INRc 5 μL sample [2]: 1.08
- INRc 10 μL sample [2]: 1.14
- INRc 20 μL sample [2]: 1.36
- INRo [2]: 1.02
- ΔINRc 10 μL − 5 μL [2]: 0.05
- ΔINRc 20 μL − 5 μL [2]: 0.28
- INR 5 μL sample [3]: 1.17
- INR 10 μL sample [3]: 1.30
- INR 20 μL sample [3]: 1.53
- INRc 5 μL sample [3]: 1.12
- INRc 10 μL sample [3]: 1.26
- INRc 20 μL sample [3]: 1.67
- INRo [3]: 0.98
- ΔINRc 10 μL − 5 μL [3]: 0.14
- ΔINRc 20 μL − 5 μL [3]: 0.55
- INR 5 μL sample [4]: 1.28
- INR 10 μL sample [4]: 1.44
- INR 20 μL sample [4]: 1.82
- INRc 5 μL sample [4]: 1.22
- INRc 10 μL sample [4]: 1.41
- INRc 20 μL sample [4]: 2.09
- INRo [4]: 1.03
- ΔINRc 10 μL − 5 μL [4]: 0.19
- ΔINRc 20 μL − 5 μL [4]: 0.87
- INR 5 μL sample [5]: 1.44
- INR 10 μL sample [5]: 1.70
- INR 20 μL sample [5]: 2.38
- INRc 5 μL sample [5]: 1.37
- INRc 10 μL sample [5]: 1.70
- INRc 20 μL sample [5]: 2.98
- ΔINRc 10 μL − 5 μL [5]: 0.33
- ΔINRc 20 μL − 5 μL [5]: 1.61
- INR 5 μL sample [6]: 1.81
- INR 10 μL sample [6]: 2.50
- INR 20 μL sample [6]: 4.22
- INRc 5 μL sample [6]: 1.72
- INRc 10 μL sample [6]: 2.62
- INRc 20 μL sample [6]: 6.36
- INRo [6]: 0.81
- ΔINRc 10 μL − 5 μL [6]: 0.91
- ΔINRc 20 μL − 5 μL [6]: 4.64
- INR 5 μL sample [7]: 2.53
- INR 10 μL sample [7]: 3.55
- INR 20 μL sample [7]: 7.03
- INRc 5 μL sample [7]: 2.39
- INRc 10 μL sample [7]: 3.89
- INRc 20 μL sample [7]: 12.47
- INRo [7]: 0.88
- ΔINRc 10 μL − 5 μL [7]: 1.51
- ΔINRc 20 μL − 5 μL [7]: 10.08
- content at which the INRc-difference (20 μL minus 5 μL) reaches 0.5 (normal plasma NKP, linear part of the graph (FIG. 8, FIG. 2)): about 200 μg/L
